# Results from US9796733B2, “Imidazo-pyrazine derivatives useful as soluble guanylate cyclase activators” (Merck Sharp & Dohme Corp., priority 2014, dated 2017).
# Assays:
# sGC α1/β1 heterodimer = target: T1, sGC α1/β1 heterodimer (Homo sapiens, UniProt Q02108+Q02153); assay: Cell-based sGC functional assay (CASA assay): cGMP generation in CHO-K1/sGC cells, HTRF detection; settings: for Emax: CHO-K1, percent activation relative to standard Compound A in CHO-K1/sGC cells, read-out: % Act.; for EC50: inflection point (IP) of cGMP generation in CHO-K1/sGC cells, 4P fit, activity expressed as percentage of Compound A
# T1 construct: expressed in transfected cells; host or cells: CHO-K1 (clone #7, CHO-K1/sGC)
# T1 sequence (Q02108 1-690): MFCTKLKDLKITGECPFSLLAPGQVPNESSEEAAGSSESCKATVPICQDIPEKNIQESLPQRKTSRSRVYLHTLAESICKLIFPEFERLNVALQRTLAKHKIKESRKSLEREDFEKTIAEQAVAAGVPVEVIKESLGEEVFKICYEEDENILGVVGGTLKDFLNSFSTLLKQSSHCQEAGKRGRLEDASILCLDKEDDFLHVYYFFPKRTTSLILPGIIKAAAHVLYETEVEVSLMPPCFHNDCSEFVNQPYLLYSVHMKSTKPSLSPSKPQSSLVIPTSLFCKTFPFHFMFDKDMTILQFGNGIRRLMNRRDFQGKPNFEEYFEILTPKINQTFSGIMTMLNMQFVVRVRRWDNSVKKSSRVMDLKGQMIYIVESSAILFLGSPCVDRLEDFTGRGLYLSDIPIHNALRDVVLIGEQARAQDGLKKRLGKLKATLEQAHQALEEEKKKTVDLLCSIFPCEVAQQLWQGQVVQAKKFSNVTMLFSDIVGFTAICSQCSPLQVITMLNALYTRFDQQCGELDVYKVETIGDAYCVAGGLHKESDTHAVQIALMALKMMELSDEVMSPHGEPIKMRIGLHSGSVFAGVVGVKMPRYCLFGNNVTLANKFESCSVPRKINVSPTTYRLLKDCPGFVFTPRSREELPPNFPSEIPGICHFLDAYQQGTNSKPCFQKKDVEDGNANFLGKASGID
# T1 sequence (Q02153 1-619): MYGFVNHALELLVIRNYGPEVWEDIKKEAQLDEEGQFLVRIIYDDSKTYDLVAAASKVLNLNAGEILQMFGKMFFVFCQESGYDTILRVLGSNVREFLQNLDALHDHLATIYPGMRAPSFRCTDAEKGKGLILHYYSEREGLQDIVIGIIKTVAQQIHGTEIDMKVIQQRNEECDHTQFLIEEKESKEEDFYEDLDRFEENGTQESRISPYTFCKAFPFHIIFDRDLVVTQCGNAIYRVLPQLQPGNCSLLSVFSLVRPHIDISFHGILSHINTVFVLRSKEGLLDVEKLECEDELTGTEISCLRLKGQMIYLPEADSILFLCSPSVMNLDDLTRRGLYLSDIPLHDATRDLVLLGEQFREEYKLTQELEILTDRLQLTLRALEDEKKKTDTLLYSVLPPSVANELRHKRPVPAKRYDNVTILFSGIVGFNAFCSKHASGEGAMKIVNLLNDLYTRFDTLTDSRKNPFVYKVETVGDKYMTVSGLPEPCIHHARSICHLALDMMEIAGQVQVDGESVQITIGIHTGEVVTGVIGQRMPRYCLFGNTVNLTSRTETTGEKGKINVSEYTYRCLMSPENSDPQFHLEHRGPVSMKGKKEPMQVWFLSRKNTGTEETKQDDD
# Method in brief: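 Stable CHO-K1/sGC cells in EBSS buffer with 5 mM MgCl2, 0.05% BSA and 0.5 mM IBMX were incubated with compound (2.5% DMSO final) ±1 μM DETA-NO for 1 hr at 37° C. cGMP was measured by HTRF. Activation is expressed as % of reference HDA Compound A maximum, with IP and max fold induction from a 4P fit.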
# [1] = test system: Spontaneously hypertensive rats (SHR); assay: Acute efficacy in spontaneously hypertensive rats (SHR): telemetry blood pressure lowering after a single oral dose; assay type: in vivo, rat
# Method in brief: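 Male SHR carrying aortic telemetry implants (14-day recovery) received a single oral gavage of compound or vehicle (10% transcutol/20% Cremophor/70% water). Conscious blood pressure was sampled 30 s every 10 min and averaged hourly; change was taken against the prior-day vehicle baseline, reported as maximum peak SBP decrease at a given PO dose (mpk).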
Emax (sGC α1/β1 heterodimer) [%],EC50 (sGC α1/β1 heterodimer) [nM],Structure (SMILES),"Maximum peak decrease of systolic blood pressure (SBP) in SHR, Cat. ([1]; P.O. 0.3 mpk)","Maximum peak decrease of systolic blood pressure (SBP) in SHR, Cat. ([1]; P.O. 1.0 mpk)","Maximum peak decrease of systolic blood pressure (SBP) in SHR, Cat. ([1]; P.O. 3.0 mpk)"
131,43,"Nc1nc(-c2cn3ccnc3c(CCC(F)(F)C(F)(F)F)n2)nc2c1C(c1ccc(F)cc1)(C1CC1)C(=O)N2 (stereo not drawn) [Example 233B, 4-amino-5-cyclopropyl-5-(4-fluorophenyl)-2-(8-(3,3,4,4,4-pentafluorobutyl)imidazo [1,2-a]pyrazin-6-yl)-5H-pyrrolo[2,3-d]pyrimidin-6(7H)-one]",B (Category B=SBP in SHRs 20-40 mmHg),–,–
105,27,"CC1(c2ccc(OC(F)(F)F)cc2)C(=O)Nc2nc(-c3cn4ccnc4c(CCC(F)(F)C(F)(F)F)n3)nc(N)c21 (stereo not drawn) [Example 234B, 4-amino-5-methyl-2-(8-(3,3,4,4,4-pentafluorobutyl)imidazo [1,2-a]pyrazin-6-yl)-5-(4-(trifluoromethoxy)phenyl)-5H-pyrrolo[2,3-d]pyrimidin-6(7H)-one]",A (Category A=SBP in SHRs<20 mmHg),–,–
148,36,"Nc1nc(-c2cn3ccnc3c(CCC(F)(F)C(F)(F)F)n2)nc2c1C(c1ccc(Cl)cc1)(C1CC1)C(=O)N2 (stereo not drawn) [Example 235B, 4-amino-5-(4-chlorophenyl)-5-cyclopropyl-2-(8-(3,3,4,4,4-pentafluorobutyl)imidazo [1,2-a]pyrazin-6-yl)-5H-pyrrolo[2,3-d]pyrimidin-6(7H)-one]",B (Category B=SBP in SHRs 20-40 mmHg),–,–
131,71,"CC1(c2ccc(Cl)cc2)C(=O)Nc2nc(-c3cn4ccnc4c(CCC(F)(F)C(F)(F)F)n3)nc(N)c21 (stereo not drawn) [Example 238A, 4-amino-5-(4-chlorophenyl)-5-methyl-2-(8-(3,3,4,4,4-pentafluorobutyl)imidazo [1,2-a]pyrazin-6-yl)-5H-pyrrolo[2,3-d]pyrimidin-6(7H)-one]",C (Category C=SBP in SHRs>40 mmHg),–,–
97,53,"CCC1(c2ccc(F)cc2)C(=O)Nc2nc(-c3cn4ccnc4c(CCC(F)(F)C(F)(F)F)n3)nc(N)c21 (stereo not drawn) [Example 239A, 4-amino-5-ethyl-5-(4-fluorophenyl)-2-(8-(3,3,4,4,4-pentafluorobutyl)imidazo [1,2-a]pyrazin-6-yl)-5H-pyrrolo[2,3-d]pyrimidin-6(7H)-one]",B (Category B=SBP in SHRs 20-40 mmHg),–,–
105,53,"CC1(c2ccc(C3CC3)nc2)C(=O)Nc2nc(-c3cn4ccnc4c(CCC(F)(F)C(F)(F)F)n3)nc(N)c21 (stereo not drawn) [Example 240B, 4-amino-5-(6-cyclopropylpyridin-3-yl)-5-methyl-2-(8-(3,3,4,4,4-pentafluorobutyl)imidazo [1,2-a]pyrazin-6-yl)-5H-pyrrolo[2,3-d]pyrimidin-6(7H)-one]",–,A (Category A=SBP in SHRs<20 mmHg),–
106,208,"CCc1ccc(C2(C)C(=O)Nc3nc(-c4cn5ccnc5c(CCC(F)(F)C(F)(F)F)n4)nc(N)c32)cn1 (stereo not drawn) [Example 243B, 4-amino-5-(6-ethylpyridin-3-yl)-5-methyl-2-(8-(3,3,4,4,4-pentafluorobutyl)imidazo [1,2-a]pyrazin-6-yl)-5H-pyrrolo[2,3-d]pyrimidin-6(7H)-one]",–,A (Category A=SBP in SHRs<20 mmHg),–
109,81,"CCOc1ccc(C2(C)C(=O)Nc3nc(-c4cn5ccnc5c(CCC(F)(F)C(F)(F)F)n4)nc(N)c32)cn1 (stereo not drawn) [Example 244B, 4-amino-5-(6-ethoxypyridin-3-yl)-5-methyl-2-(8-(3,3,4,4,4-pentafluorobutyl)imidazo [1,2-a]pyrazin-6-yl)-5H-pyrrolo[2,3-d]pyrimidin-6(7H)-one]",–,–,C (Category C=SBP in SHRs>40 mmHg)
118,77,"Nc1nc(-c2cn3ccnc3c(CCC(F)(F)C(F)(F)F)n2)nc2c1C(c1ccc(Cl)cn1)(C1CC1)C(=O)N2 (stereo not drawn) [Example 245B, 4-amino-5-(5-chloropyridin-2-yl)-5-cyclopropyl-2-(8-(3,3,4,4,4-pentafluorobutyl)imidazo [1,2-a]pyrazin-6-yl)-5H-pyrrolo[2,3-d]pyrimidin-6(7H)-one]",–,C (Category C=SBP in SHRs>40 mmHg),–
114,128,"CC1(c2ccc(F)cn2)C(=O)Nc2nc(-c3cn4ccnc4c(CCC(F)(F)C(F)(F)F)n3)nc(N)c21 (stereo not drawn) [Example 246B, 4-amino-5-(5-fluoropyridin-2-yl)-5-methyl-2-(8-(3,3,4,4,4-pentafluorobutyl)imidazo [1,2-a]pyrazin-6-yl)-5H-pyrrolo[2,3-d]pyrimidin-6(7H)-one]",–,B (Category B=SBP in SHRs 20-40 mmHg),–
117,152,"CCC1(c2ccc(Cl)cc2)C(=O)Nc2nc(-c3cn4ccnc4c(CCC(F)(F)C(F)(F)F)n3)nc(N)c21 (stereo not drawn) [Example 247B, 4-amino-5-(4-chlorophenyl)-5-ethyl-2-(8-(3,3,4,4,4-pentafluorobutyl)imidazo [1,2-a]pyrazin-6-yl)-5H-pyrrolo[2,3-d]pyrimidin-6(7H)-one]",A (Category A=SBP in SHRs<20 mmHg),–,–
96,759,"CCC1(c2ccc(F)cn2)C(=O)Nc2nc(-c3cn4ccnc4c(CCC(F)(F)C(F)(F)F)n3)nc(N)c21 (stereo not drawn) [Example 249A, 4-amino-5-ethyl-5-(5-fluoropyridin-2-yl)-2-(8-(3,3,4,4,4-pentafluorobutyl)imidazo [1,2-a]pyrazin-6-yl)-5H-pyrrolo[2,3-d]pyrimidin-6(7H)-one]",–,–,B (Category B=SBP in SHRs 20-40 mmHg)
87,169,"CCCc1ccc(C2(C)C(=O)Nc3nc(-c4cn5ccnc5c(CCC(F)(F)C(F)(F)F)n4)nc(N)c32)cn1 (stereo not drawn) [Example 250B, 4-amino-5-methyl-2-(8-(3,3,4,4,4-pentafluorobutyl)imidazo [1,2-a]pyrazin-6-yl)-5-(6-propylpyridin-3-yl)-5H-pyrrolo[2,3-d]pyrimidin-6(7H)-one]",–,–,A (Category A=SBP in SHRs<20 mmHg)
85,100,"CC(C)c1ccc(C2(C)C(=O)Nc3nc(-c4cn5ccnc5c(CCC(F)(F)C(F)(F)F)n4)nc(N)c32)cn1 (stereo not drawn) [Example 251B, 4-amino-5-(6-isopropylpyridin-3-yl)-5-methyl-2-(8-(3,3,4,4,4-pentafluorobutyl)imidazo [1,2-a]pyrazin-6-yl)-5H-pyrrolo[2,3-d]pyrimidin-6(7H)-one]",–,–,B (Category B=SBP in SHRs 20-40 mmHg)
83,51,"CC1(c2ccc(C3CC3)nn2)C(=O)Nc2nc(-c3cn4ccnc4c(CCC(F)(F)C(F)(F)F)n3)nc(N)c21 (stereo not drawn) [Example 253B, 4-amino-5-(6-cyclopropylpyridazin-3-yl)-5-methyl-2-(8-(3,3,4,4,4-pentafluorobutyl)imidazo [1,2-a]pyrazin-6-yl)-5H-pyrrolo[2,3-d]pyrimidin-6(7H)-one]",–,A (Category A=SBP in SHRs<20 mmHg),–
